# Tested on: production of (S)-3-methyl-3-sulfanylhexan-1-ol
# Experiment: Screening of potentially malodor-inhibiting compounds: micro-organisms incubated with the Cys-Gly precursor, VSC quantified by GC-AED (procedure of Example 6)
# Type: cell-based
# Settings: for inhibition of production of (S)-3-methyl-3-sulfanylhexan-1-ol: compounds added at 2 μmole
# Procedure: Bacteria isolates were grown aerobically in the appropriate liquid media at 37° C. until OD600=1.0. Cells were harvested by centrifugation at 3000 g, 10 min, washed once with sterile 0.1M phosphate buffer (pH 6.0) and resuspended in fresh buffer. The concentration of individual strains incubated with the sweat precursor was between 1.10^+8 and 1.10^+10 cfu/mL. These freshly prepared bacteria (5 mL), were incubated with 0.1 mL of precursors (5 mg in 10 mL water), (or the sweat fraction, in Example 1 above), at 37° C. pH 6 in a close bottle. After the incubation time 1, 4 and 18 hours, 1 mL of ethyl acetate containing octanethiol and octadecane at 0.02 mg/mL was added and the fermentation broth was centrifuged at 16′000 g. The organic phase was directly injected on a GCSPB1 column coupled to MS and on a GCDMePeBetacdx chiral column coupled to AED detection. These experiments were repeated three times, two blanks were done with the micro-organism without the precursor and one with the precursor in the growing buffer only. No formation of sulfur compound was detected in blanks. The response factor for 1 μL injected of a solution 0.01 mg/mL of octanethiol was calculated in comparison of 1 μL injected of a racemic solution of 0.01 mg/mL of 3-methyl-3-sulphanylhexane-1-ol. The addition of both peaks areas (R/S) gave 280 (+/−5) and octanethiol 303 (+/−3) peaks surface over for injections so we used as an approximation a response factor of 1. Correlation factor for 1 μL injected on both column, were above 0.998 in the range of 1 to 10 ppm of (R/S)-3-methyl-3-sulfanylhexane-1-ol.
# Micro-organisms suspended in fresh buffer (Example 5, detailed fermentation protocol) were split in two samples X and Y (negative control) of 5 mL.
# [drawing 12] (obtained in Example 9) was added to sample X at a concentration of 2 μmol/L.
# The samples comprising suspended micro-organisms and the compound to be screened were incubated at 37° C. for 30 min. […]
# After the incubation times of 1, 4 and 18 hours, the increase of malodorous substance (compound 1 in FIG. 2) is briefly determined by sniffing of a trained person. […]
# For the internal standard, the response factor for 1 μL injected of a solution 0.01 mg/mL of octanethiol was calculated in comparison of 1 μL injected of a racemic solution of 0.01 mg/mL of 3-methyl-3-sulphanylhexane-1-ol. […]
# Stoichiometrically, 0.2 μmol of precursor produces 0.025 mg of VSC in 1 ml ethylacetate, if all precursor is metabolized. If less than […] of VSC is measured in sample X by the AED system, the screened compound, β-Cl-ala-gly, has the ability to reduce the development of malodor. […]
Compound,inhibition of production of (S)-3-methyl-3-sulfanylhexan-1-ol (procedure of Example 6),effect on formation of metabolites like compound II upon screening (compound (VII) with Z being NH),"production of (S)-3-methyl-3-sulfanylhexan-1-ol compared to the control (compound added at 2 μmole, procedure of Example 6)"
"C#CC[C@H](N)C(=O)NCC(=O)O [Compound VI, N-[(2S)-2-amino-4-pentynoyl]glycine]",75%,–,–
"N[C@@H]1C=C(C(=O)NCC(=O)O)SC1 [IIIa, N-{[(4R)-4-amino-4,5-dihydro-2-thienyl]carbonyl}glycine]",25%,–,–
"Nc1cccc(C(=O)NCC(=O)O)c1 [Compound VII, N-[3-amino-benzoyl]glycine]",–,clear and confirmed increase of metabolites,increased production

# From patent US9073966B2, “Inhibition of sweat malodor” (Firmenich SA, priority 2005, dated 2015)
